Test results published in patent publication US20220348569A1 (priority 2021, published 2022).
Where “and” joins values, the source holds several entries; their conditions need not be identical. Equal entries are not always repeated. Where two headings read alike, the source gives them in different places.

Tested on: SARS-CoV-2 pseudoviruses carrying spike mutations of B.1.1.7 UK, B.1.351 RSA and B.1.617.2 India (Delta) variants
Assay type: cell-based

| SMILES | antiviral activity against mutant pseudoviruses (in words) | IC50 (read-out: IC50 in the range for all the pseudovirus variants) | IC50 (read-out: IC50) | IC50 (read-out: IC50 against B.1.617.2 Delta single, double and triple mutant variants) |
| --- | --- | --- | --- | --- |
| O=C(O)c1cccc(-c2ccc(/C=C3\SC(=S)N(CCc4ccccc4)C3=O)o2)c1 [Compound 2] | highly potent inhibitor against all mutant pseudoviruses | 35 to 88.7 nM |  |  |
| Cc1c(C(=O)O)cccc1-c1ccc(/C=C2\SC(=S)N(CCc3ccccc3)C2=O)o1 [Compound 5] | poor/no activity |  | > 2000 nM and 1730 nM and 1850 nM and 1720 nM |  |
| O=C(O)c1cc(-c2ccc(/C=C3\SC(=S)N(CCc4ccccc4)C3=O)o2)ccc1Cl [Compound 1, (Z)-2-Chloro-5-(5-((4-oxo-3-phenethyl-2-thioxothiazolidin-5-ylidene)methyl)furan-2-yl)benzoic acid] | potent antiviral activity against all mutant pseudoviruses |  | 57 nM and 33 nM |  |
| Cc1ccc(-c2ccc(/C=C3\SC(=S)N(CCc4ccccc4)C3=O)o2)cc1C(=O)O [Compound 4] |  |  |  | 148 to 239 nM |
| O=C(O)c1cc(-c2ccc(/C=C3\SC(=S)N(CCc4ccccc4)C3=O)o2)ccc1F [Compound 3] | slightly less efficient against all the pseudoviruses tested |  | 232 ± 17 nM |  |
